For 37 compounds, EC50 results are on record in patent US12516016B2, “GPX4 inhibitors, pharmaceutical compositions thereof, and their use for treating GPX4-mediated diseases” (EUBULUS BIOTHERAPEUTICS (HONG KONG) LIMITED, priority 2020, dated 2026).

The test system of the first assay is hepatocellular carcinoma cell line Hub-7. The assay is described as follows: Cell proliferation assay (CELL-TITER GLO cell viability). The following applies: 24 h, Hub-7 cells, 24 h incubation, read-out: Inhibition of Cell Proliferation EC50. The class given is cell-based. Here is the method:
The activity of a test compound was determined in a cell proliferation assay using the hepatocellular carcinoma cell line […]. Cells (4,000 cells per well) were seeded in a 96-well tissue culture plate. After incubated overnight, a test compound was added at predetermined concentrations, starting with 10 μM and followed by 3-fold serial dilution. After the cells were incubated for 24 h, cell viability was determined using a CELL-TITER GLO® assay. The CELL-TITER GLO® reagent (50 μL) was added to each well and the luminescence was measured by a multimode microplate reader after a brief period of shaking. EC50 values were determined for the test compound. The results are summarized in Table 1, wherein A represents a value no greater than 100 nM, B represents a value greater than 100 nM but no greater than 500 nM, C represents a value greater than 500 nM but no greater than 2 μM, D represents a value greater than 2 μM but no greater than 10 μM; and E represents a value greater than 10 μM.
As to `CN(C)C/C=C/C(=O)N(c1ccc2c(cnn2C)c1)C1(C(=O)NCc2ccccc2)CCOCC1` [B10, (E)-N-Benzyl-4-(4-(dimethylamino)-N-(1-methyl-1H-indazol-5-yl)but-2-enamido)tetrahydro-2H-pyran-4-carboxamide], the EC50 is above 10000 nM.
The same measure, in the same setting: to `C#CC(=O)N(c1cccc(Cl)c1)C(C(=O)NCc1ccccc1F)c1ccccc1` (stereo not shown) [A116, N-(3-Chlorophenyl)-N-(2-((2-fluorobenzyl)amino)-2-oxo-1-phenylethyl)-propiolamide] belongs 100 to 500 nM.
On to `C#CC(=O)N(c1cccc(Cl)c1)C(C(=O)NCc1ccccc1)c1ccccc1` (stereo not shown) [A74, N-(2-(Benzylamino)-2-oxo-1-phenylethyl)-N-(3-chlorophenyl)propiolamide], for which the EC50 was at most 100 nM.
Turning to `COc1ccc(N(C(=O)CCl)C2(C(=O)NCc3ccccc3)CCOCC2)cc1Cl` [C25, N-Benzyl-4-(2-chloro-N-(3-chloro-4-methoxyphenyl)acetamido)tetrahydro-2H-pyran-4-carboxamide], the EC50 is 100 to 500 nM.
Turning to `CC#CC(=O)N(c1cncc(Cl)c1)C(C(=O)NCc1ccccc1)c1ccccc1` (stereo not shown) [A133, N-(2-(Benzylamino)-2-oxo-1-phenylethyl)-N-(5-chloropyridin-3-yl)but-2-ynamide], the EC50 is above 10000 nM.
Still for that read-out and setting: to `C#CC(=O)N(c1ccc2c(cnn2C)c1)C1(C(=O)NCc2ccccc2)CCCC(C(=O)OC)C1` (stereo not shown) [A177, Methyl 3-(benzylcarbamoyl)-3-(N-(1-methyl-1H-indazol-5-yl)propiolamido)-cyclohexane-1-carboxylate] belongs at most 100 nM; to `C#CC(=O)N(c1ccc2nncn2c1)C(C(=O)NCc1ccccc1)c1ccccc1` (stereo not shown) [A105, N-([1,2,4]Triazolo[4,3-a]pyridin-6-yl)-N-(2-(benzylamino)-2-oxo-1-phenylethyl)-propiolamide], 100 to 500 nM.
With `C#CC(=O)N(c1ccc(S(N)(=O)=O)cc1)C(C(=O)NC(C)(C)C)c1ccc(N)cc1` (stereo not shown) [A11, N-(1-(4-Aminophenyl)-2-(tert-butylamino)-2-oxoethyl)-N-(4-sulfamoylphenyl)-propiolamide], the EC50 was above 10000 nM.
`C#CC(=O)N(c1cccc(Cl)c1)C(C(=O)NCc1ccc(C#N)cc1)c1ccccc1` (stereo not shown) [A114, N-(3-chlorophenyl)-N-(2-((4-cyanobenzyl)amino)-2-oxo-1-phenylethyl)propiolamide]: the EC50 was at most 100 nM.
Take `C#CC(=O)N(c1cccc(Cl)c1)C1(C(=O)NCC(=O)N2CCCC(CO)C2)CCOCC1` (stereo not shown) [A194, 4-(N-(3-Chlorophenyl)propiolamido)-N-(2-(3-(hydroxymethyl)piperidin-1-yl)-2-oxoethyl)tetrahydro-2H-pyran-4-carboxamide]: the EC50 was in the range of 2000 to 10000 nM.
Consider `C#CC(=O)N(c1cccc2c1OCO2)C(C(=O)NCc1ccccc1)c1ccccc1` (stereo not shown) [A97, N-(Benzo[d][1,3]dioxol-4-yl)-N-(2-(benzylamino)-2-oxo-1-phenylethyl)-propiolamide], for which the EC50 fell in the range of 100 to 500 nM.
The same measure, in the same setting: to `C#CC(=O)N(c1cccc(Cl)c1)C1(C(=O)NCC(=O)NCCO)CCOCC1` [A186, 4-(N-(3-Chlorophenyl)propiolamido)-N-(2-((2-hydroxyethyl)amino)-2-oxoethyl)-tetrahydro-2H-pyran-4-carboxamide] belongs 2000 to 10000 nM.
Still for that read-out and setting: to `C#CC(=O)N(c1cccc(CO)c1)C(C(=O)NCc1ccccc1)c1cccc(N)c1` (stereo not shown) [A39, N-(1-(3-Aminophenyl)-2-(benzylamino)-2-oxoethyl)-N-(3-(hydroxymethyl)-phenyl)propiolamide] belongs 2000 to 10000 nM.
As to `C#CC(=O)N(c1cccc(Cl)c1F)C(C(=O)NCc1ccccc1)c1ccc(N)cc1` (stereo not shown) [A123], the EC50 is at most 100 nM.
Consider `C#CC(=O)N(c1ccc2cnn(C)c2c1)C(C(=O)NCc1ccccc1)c1ccccc1` (stereo not shown) [A104, N-(2-(Benzylamino)-2-oxo-1-phenylethyl)-N-(1-methyl-1H-indazol-6-yl)-propiolamide], for which the EC50 is at most 100 nM.
As to `C#CC(=O)N(c1cccc(Cl)c1)C(C(=O)NCc1ccccc1)c1ccc(N)cc1` (stereo not shown) [A32, N-(1-(4-Aminophenyl)-2-(benzylamino)-2-oxoethyl)-N-(3-chlorophenyl)-propiolamide], the EC50 is at most 100 nM.
As to `C#CC(=O)N(c1cccc(C#N)c1)C(C(=O)NCc1ccccc1)c1cccc(N)c1` (stereo not shown) [A38, N-(1-(3-Aminophenyl)-2-(benzylamino)-2-oxoethyl)-N-(3-cyanophenyl)-propiolamide], the EC50 was in the range of 100 to 500 nM.
In the case of `C[Si](C)(C)C#CC(=O)N(c1cccc(Cl)c1)C1(C(=O)NCc2cccc(Cl)c2)CCOCC1` [A195, N-(3-Chlorobenzyl)-4-(N-(3-chlorophenyl)-3-(trimethylsilyl)propiolamido)-tetrahydro-2H-pyran-4-carboxamide], the EC50 was at most 100 nM.
Consider `C#CC(=O)N(c1ccc(NS(C)(=O)=O)cc1)C(C(=O)NC(C)(C)C)c1ccc(N)cc1` (stereo not shown) [A17, N-(1-(4-Aminophenyl)-2-(tert-butylamino)-2-oxoethyl)-N-(4-(methyl-sulfonamido)phenyl)propiolamide], for which the EC50 was above 10000 nM.
For `C#CC(=O)N(c1cccc(Cl)c1)C(C(=O)NCc1ccccc1C#N)c1ccccc1` (stereo not shown) [A178, N-(3-Chlorophenyl)-N-(2-((2-cyanobenzyl)amino)-2-oxo-1-phenylethyl)-propiolamide], the EC50 was at most 100 nM.
Turning to `C#CC(=O)N(C1CCC(=O)N(C)C1)C(C(=O)NCc1ccccc1)c1ccccc1` (stereo not shown) [A158, N-(2-(Benzylamino)-2-oxo-1-phenylethyl)-N-(1-methyl-6-oxopiperidin-3-yl)-propiolamide], the EC50 fell in the range of 2000 to 10000 nM.
`C=CC(=O)N(CCc1ccccc1)C1(C(=O)NCc2ccccc2)CCOCC1` [B6, N-Benzyl-4-(N-phenethylacrylamido)tetrahydro-2H-pyran-4-carboxamide]: the EC50 is above 10000 nM.
As for `C#CC(=O)N(c1ccc2ncn(C)c2c1)C1(C(=O)NCc2ccccc2)CCOCC1` [A154, N-Benzyl-4-(N-(1-methyl-1H-benzo[d]imidazol-6-yl)propiolamido)tetrahydro-2H-pyran-4-carboxamide], the EC50 was in the range of 500 to 2000 nM.
In the case of `O=C(CCl)N(c1cccc2nsnc12)C1(C(=O)NCc2ccccc2)CCOCC1` [C28, 4-(N-(Benzo[c][1,2,5]thiadiazol-4-yl)-2-chloroacetamido)-N-benzyltetrahydro-2H-pyran-4-carboxamide], the EC50 lay in the range of 100 to 500 nM.
Regarding `Cn1ncc2cc(N(C(=O)CCCl)C3(C(=O)NCc4ccccc4)CCOCC3)ccc21` [D5, N-Benzyl-4-(3-chloro-N-(1-methyl-1H-indazol-5-yl)propanamido)tetrahydro-2H-pyran-4-carboxamide], the EC50 is above 10000 nM.
As to `C#CC(=O)N(c1cccc(O)c1)C(C(=O)NCc1ccccc1)c1ccc(N)cc1` (stereo not shown) [A58, N-(1-(4-Aminophenyl)-2-(benzylamino)-2-oxoethyl)-N-(3-hydroxyphenyl)-propiolamide], the EC50 is 2000 to 10000 nM.
In the case of `C#CC(=O)N(c1cccc(C#N)c1)C(C(=O)NCc1ccccc1)c1ccc(N)cc1` (stereo not shown) [A55, N-(1-(4-Aminophenyl)-2-(benzylamino)-2-oxoethyl)-N-(3-cyanophenyl)-propiolamide], the EC50 lay within 100 to 500 nM.
As to `C#CC(=O)N(c1cccc(OC)c1)C(C(=O)NCc1ccccc1)c1ccc(N)cc1` (stereo not shown) [A61, N-(1-(4-Aminophenyl)-2-(benzylamino)-2-oxoethyl)-N-(3-methoxyphenyl)-propiolamide], the EC50 was at most 100 nM.
The same measure, in the same setting: to `C#CC(=O)N(Cc1cc[nH]n1)C1(C(=O)NCc2ccccc2)CCOCC1` [A137, 4-(N-((1H-Pyrazol-3-yl)methyl)propiolamido)-N-benzyltetrahydro-2H-pyran-4-carboxamide] belongs above 10000 nM; to `C#CC(=O)N(c1cccc(Cl)c1)C1(C(=O)NCc2ccccc2)CCC(F)(F)CC1` [A103, N-Benzyl-1-(N-(3-chlorophenyl)propiolamido)-4,4-difluorocyclohexane-carboxamide], at most 100 nM.
Consider `C#CC(=O)N(c1cc(Cl)ccc1F)C(C(=O)NCc1ccccc1)c1cccc(N)c1` (stereo not shown) [A40, N-(1-(3-Aminophenyl)-2-(benzylamino)-2-oxoethyl)-N-(5-chloro-2-fluorophenyl)-propiolamide], for which the EC50 was at most 100 nM.
For the compound `C#CC(=O)N(c1cccc(Cl)c1)C(C(=O)NCc1ccccc1)c1cccc(N)c1` (stereo not shown) [A33, N-(1-(3-Aminophenyl)-2-(benzylamino)-2-oxoethyl)-N-(3-chlorophenyl)-propiolamide], the EC50 is at most 100 nM.
For the compound `C#CC(=O)N(c1cccc(Cl)c1)C1(C(=O)NCc2ccccc2)CCC(C(=O)OC)CC1` (stereo not shown) [A79, Methyl 4-(benzylcarbamoyl)-4-(N-(3-chlorophenyl)propiolamido)-cyclohexane-carboxylate], the EC50 is at most 100 nM.
For the compound `C#CC(=O)N(c1cccc(F)c1)C(C(=O)NCc1ccccc1)c1cccc(N)c1` (stereo not shown) [A43, N-(1-(3-Aminophenyl)-2-(benzylamino)-2-oxoethyl)-N-(3-fluorophenyl)-propiolamide], the EC50 lay in the range of 100 to 500 nM.
On the same count and under the same terms, the value for `C=C(F)C(=O)N(c1ccc2c(cnn2C)c1)C1(C(=O)NCc2ccccc2)CCOCC1` [B9, N-Benzyl-4-(2-fluoro-N-(1-methyl-1H-indazol-5-yl)acrylamido)tetrahydro-2H-pyran-4-carboxamide] was above 10000 nM; that for `C#CC(=O)N(c1cccc(Cl)c1)C1(C(=O)NCC(=O)O)CCOCC1` [A192, 2-(4-(N-(3-Chlorophenyl)propiolamido)tetrahydro-2H-pyran-4-carboxamido)-acetic acid] was above 10000 nM.

The assay is the same for the next values; noted with them: Hub-7 cells, 24 h incubation, read-out: Inhibition of Cell Proliferation EC50.
In the case of `Nc1cccc(N(C(=O)CCl)C(C(=O)NCCc2ccccc2)c2cccs2)c1` (stereo not shown) [C13], the EC50 was 2000 to 10000 nM.
